Results from ChEMBL document CHEMBL2150853 (Eur J Med Chem, 2011).

Key:
human MDR1 [1] = assay: Permeability from basolateral to apical side of in MDCK cells overexpressing human MDR1 assessed as mass balance at 10 uM after 2 hrs; format: ADME, cell-based, Canis lupus familiaris; conditions: dog, read-out: permeability
human MDR1 [2] = format: ADME, cell-based, Canis lupus familiaris; conditions: dog, MDCK-MDR1; read-out: permeability
N167 = assay: Antiprion activity against mouse prion protein 22L infected mouse N167 cells assessed as drug level required for more than 99 percent reduction of PrPSc level by Western blot method; format: cell-based
MDCK [3] = format: ADME, cell-based, Canis lupus familiaris; conditions: dog, 2 h, 10 µM
[4] = Permeability from basolateral to apical side of in wild type MDCK cells assessed as mass balance at 10 uM after 2 hrs; format: ADME, cell-based, Canis lupus familiaris; conditions: dog, read-out: permeability
[5] = Antiprion activity against human prion protein Fukuoka-1 infected mouse F3 cells assessed as reduction of PrPSc level by Western blot method; format: cell-based; conditions: N2a #58 F3
N2a #58 F3 = assay: Antiprion activity against human prion protein Fukuoka-1 infected mouse F3 cells assessed as drug level required for more than 99 percent reduction of PrPSc level by Western blot method; format: cell-based
[6] = Antiprion activity against mouse prion protein 22L infected mouse N167 cells assessed as reduction of PrPSc level by Western blot method; format: cell-based
MDCK [7] = assay: Permeability from apical to basolateral side of in wild type MDCK cells assessed as cell retention at 10 uM after 2 hrs; format: ADME, cell-based, Canis lupus familiaris; conditions: dog
human MDR1 [8] = format: ADME, cell-based, Canis lupus familiaris; conditions: dog, MDCK-MDR1
MDCK [9] = assay: Permeability from basolateral to apical side of in wild type MDCK cells assessed as cell retention at 10 uM after 2 hrs; format: ADME, cell-based, Canis lupus familiaris; conditions: dog
MDCK [10] = assay: Permeability from apical to basolateral side of in P-glycoprotein-mediated MDCK cells over expressing human MDR1 assessed as cell retention at 10 uM after 2 hrs; format: ADME, cell-based, Canis lupus familiaris; conditions: dog
human MDR1 [11] = assay: in vitro; conditions: dog, MDCK-MDR1
[12] = Effective permeability of the compound at pH 7.4 at 30 to 50 uM by PAMPA assay; format: ADME; conditions: read-out: Peff
[13] = Permeability from apical to basolateral side of in wild type MDCK cells assessed as mass balance at 10 uM after 2 hrs; format: ADME, cell-based, Canis lupus familiaris; conditions: dog, read-out: permeability
MDCK [14] = assay: Permeability from apical to basolateral side of in wild type MDCK cells assessed as adsorption on transwell at 10 uM after 2 hrs; format: ADME, cell-based, Canis lupus familiaris; conditions: dog
MDCK [15] = assay: Permeability from basolateral to apical side of in P-glycoprotein-mediated MDCK cells over expressing human MDR1 assessed as cell retention at 10 uM after 2 hrs; format: ADME, cell-based, Canis lupus familiaris; conditions: dog
in vitro = conditions: dog, MDCK
MDCK [16] = assay: Permeability from basolateral to apical side of in wild type MDCK cells assessed as adsorption on transwell at 10 uM after 2 hrs; format: ADME, cell-based, Canis lupus familiaris; conditions: dog
ScN2a = assay: Antiprion activity against mouse prion protein RML infected mouse ScN2a cells assessed as drug level required for more than 99 percent reduction of PrPSc level by Western blot method; format: cell-based
[17] = molecular target: Major prion protein (Homo sapiens) (UniProt P04156); assay: Binding affinity to truncated human PrP 121-231 at 50 uM by surface plasmon resonance method
[18] = Cytotoxicity against mouse N2A cells assessed as maximal tolerant concentration; format: cell-based; conditions: read-out: MTD
MDCK [19] = format: ADME, cell-based, Canis lupus familiaris; conditions: dog, 2 h, 10 µM; remark: listed apart in the source
human MDR1 [20] = format: ADME, cell-based, Canis lupus familiaris; conditions: dog, MDCK-MDR1; remark: listed apart in the source
[21] = Antiprion activity against mouse prion protein RML infected mouse ScN2a cells assessed as reduction of PrPSc level by Western blot method; format: cell-based

## COc1ccc2nc3cc(Cl)ccc3c(Nc3ccc(N4CCN(C)CC4)cc3)c2c1
Human MDR1 [1]
  recovery at 2 h, 10 µM: 73%
Human MDR1 [2]
  recovery at 2 h, 10 µM: 12.6%
N167
  Activity: 1.5 µM
MDCK [3]
  permeability: 6.1%
[4]
  recovery at 2 h, 10 µM: 75.3%
[5]
  EC50: 680 nM
N2a #58 F3
  Activity: 1.5 µM
[6]
  EC50: 420 nM
MDCK [7]
  permeability: 66.4%
Human MDR1 [8]
  Papp B→A at 2 h, 10 µM: 0.34 ×10⁻⁶ cm/s
MDCK [9]
  permeability: 27.5%
MDCK [10]
  permeability: 67%
Human MDR1 [11]
  efflux ratio at 2 h, 10 µM: 2.4
[12]
  Papp at up to 50 µM: 8.13 ×10⁻⁶ cm/s
[13]
  recovery at 2 h, 10 µM: 11.3%
MDCK [14]
  permeability: 11.4%
MDCK [15]
  permeability: 44.2%
In vitro
  efflux ratio at 2 h, 10 µM: 1.2
MDCK [16]
  permeability: 3.5%
ScN2a
  Activity: 0.4 µM
[17]
  RUmax: 120%
[18]
  MNTC: 2500 nM
MDCK [19]
  permeability: 3.1%
Human MDR1 [20]
  Papp A→B at 2 h, 10 µM: 0.14 ×10⁻⁶ cm/s
[21]
  EC50: 100 nM
